Consider two compounds from US8288380B2, “Thiophenediamine derivative having urea structure” (Santen Pharmaceutical Co., Ltd., priority 2008, dated 2012).

Assay [1] deals with human trabecular meshwork cell line (TM-1 cells). The assay can be described thus: Test for evaluation of effect of morphological change on trabecular meshwork cells (cell shape index, CSI). Type of assay: cell-based. The note with it: final concentration 10 μM, 24 hours incubation, Control 0.694, lower CSI indicates greater morphological changes. An excerpt:
Further, as a result of studying an effect morphological change of the present compound on trabecular meshwork cells, i.e., an effect of morphological change of the present compound on trabecular meshwork cells in an evaluation system using the cell shape index (hereinafter referred to as “CSI”) reported in The Journal of Clinical Investigation, 103, 1141-1150 (1999) as an index, it was found the present compound has an excellent effect of morphological change on trabecular meshwork cells.
As a method for evaluating a cellular morphological change, an evaluation system using the cell shape index (hereinafter referred to as “CSI”) as an index has been reported in The Journal of Clinical Investigation, 103, 1141-1150 (1999). Therefore, according to the method described in the above document, an effect of morphological change of the present compounds on trabecular meshwork cells was evaluated.
A human trabecular meshwork cell line (hereinafter referred to as “TM-1 cells”) reported in Investigative Ophthalmology & Visual Science, 43, 151-161 (2002) was used.
Culture medium 1: A reagent was prepared by adding fetal bovine serum (10%), L-glutamine (2 mM), amphotericin B ([…]), and gentamicin (25 μg/mL) to Dulbecco's Modified Eagle Medium (hereinafter referred to as “D-MEM”).
Culture medium 2: A reagent was prepared by adding fetal bovine serum (3%), L-glutamine (2 mM), amphotericin B (2.5 μg/mL), and gentamicin (25 μg/mL) were added to D-MEM.
Cell staining liquid: A mixed liquid of Calcein-AM (16 μM) and Hoechst 33342 (40 μM) was prepared by diluting a Calcein-AM solution (cytoplasmic staining reagent, manufactured by Dojindo Laboratories) and a Hoechst 33342 solution (nuclear staining reagent, manufactured by Dojindo Laboratories) with D-MEM containing L-glutamine (2 mM), amphotericin B (2.5 μg/mL), and gentamicin (25 μg/mL).
TM-1 cells subcultured at 37° C. in a 8% carbon dioxide gas atmosphere were treated with a trypsin/EDTA solution (0.05% trypsin and 0.53 mM tetrasodium ethylenediaminetetraacetate) at 24 hours before performing a drug treatment mentioned below and seeded on a 96-well culture plate. The culture medium 1 was used for the subculture of the cells. The culture medium 2 was used for the cell culture after seeding the cells on the plate.
A test compound was dissolved in DMSO, whereby a 5 mM solution was prepared. Then, the resulting solution was diluted with the culture medium 2, whereby a 200 μM test compound solution was prepared.
It has been reported that Y-27632 which is a Rho kinase inhibitor induces a morphological change in trabecular meshwork cells in Investigative Ophthalmology & Visual Science, 42, 137-144 (2001). Therefore, Y-27632 (produced according to the method described in WO 90/05723) was used as a positive control, and dissolved in DMSO in the same manner as the test compound, whereby a 5 mM solution was prepared, and then, the resulting solution was diluted with the culture medium 2, whereby a 200 μM positive control compound solution was prepared.
1) To a 96-well culture plate, a solution of TM-1 cells adjusted to a cell density of […] was added in an amount of 95 μL (1.5×10^4 cells) per well.
2) Incubation was performed at 37° C. in a 8% carbon dioxide gas atmosphere for 24 hours.
3) The test compound solution or positive control compound solution was added in an amount of 5 μL per well (the final concentration of the test compound or positive control compound was 10 μM). As a control, the culture medium 2 containing DMSO (4%) was added in an amount of 5 μL per well.
4) Incubation was performed at 37° C. in a 8% carbon dioxide gas atmosphere for 24 hours.
5) The cell staining liquid was added in an amount of 10 μL per well.
6) Incubation was performed at 37° C. in a 8% carbon dioxide gas atmosphere for 1 hour to stain the cells.
7) A 37% formaldehyde solution was added in an amount of 10 μL per well.
8) Incubation was performed at room temperature for 1 hour to fix the cells. […]

Assay [2] relates to male Japanese White rabbits. The assay can be described thus: Test for evaluation of intraocular pressure-lowering effect (intracameral administration). Format: in vivo, rabbit. The note with it: intracameral administration of 20 μL of 1 mM liquid, at 9 hours after administering, versus vehicle control group. The text has this: Further, as a result of studying an effect of intraocular pressure reduction of the present compound through intracameral administration using male Japanese white rabbits in order to confirm an actual effect of intraocular pressure reduction of the present compound, it was confirmed that the present compound has an effect of intraocular pressure reduction. […]
One drop of 0.4% oxybuprocaine hydrochloride eye drop was instilled into both eyes of each male Japanese White rabbit to achieve local anesthesia, and thereafter, the intraocular pressure was measured using an applanation tonometer. […] After the lapse of a certain period of time from the administration of the test compound or vehicle, one drop of 0.4% oxybuprocaine hydrochloride eye drop was instilled into the administered eye to achieve local anesthesia, and thereafter, the intraocular pressure was measured using an applanation tonometer.
The intraocular pressure-lowering effect of each test compound was evaluated by calculating an intraocular pressure reduction rate. The intraocular pressure reduction rate (%) was calculated using the following equation. […]

Assay [3] concerns HDAC (HeLa nuclear extract). Kind of assay: Test for evaluation of HDAC inhibitory activity (HDAC Fluorimetric Assay/Drug Discovery Kit, Biomol). Format: biochemical. To be noted: final concentration of the test compound 30 μM, values more than 100% shown as 100%. As for the experimental part: Using HDAC Fluorimetric Assay/Drug Discovery Kit (manufactured by Biomol), HDAC inhibitory activity of the present compounds was measured according to the protocol included with the kit. The kit contains Buffer, HeLa nuclear extract (includes HDAC), Substrate, Developer and Trichostatin A HDAC inhibitor).
A test compound was dissolved in dimethyl sulfoxide (hereinafter referred to as “DMSO”), whereby a 2 mg/mL solution was prepared. Then, the resulting solution was diluted with Buffer containing 5% DMSO, whereby a 150 μM test compound solution was prepared.
1) To a 384-well culture plate, the test compound solution was added in an amount of 2 μL per well.
2) HeLa nuclear extract was diluted 30-fold with Buffer. The resulting solution was added in an amount of 3 μL per well, and then incubation was performed at 37° C. for 2 hours.
3) Substrate was diluted 500-fold with Buffer. The resulting solution was added in an amount of 5 μL per well (the final concentration of the test compound was 30 μM), and then incubation was performed at 37° C. for 10 minutes.
4) Developer was diluted 20-fold with Buffer and Trichostatin A (2 μM) was added to it. The resulting solution was added in an amount of 10 μL per well, and then incubation was performed at room temperature for 15 minutes.
5) The fluorescence intensity of each well was measured using multilabel counter ARVO (manufactured by Wallac) with excitation at 360 nm and emission at 460 nm.
6) A control data was obtained from the same experiment except that Buffer containing 5% DMSO was added instead of the test compound solution as the above-mentioned procedure from 1) to 5).
7) A blank data was obtained from the same experiment except that Buffer containing 5% DMSO was added instead of the test compound solution and that Buffer was added instead of Hela nuclear extract as the above-mentioned procedure from 1) to 5).
Enzyme inhibitory rate (%) was calculated using the following equation. (Enzyme Inhibitory Rate(%))=100×[1−{(Fluorescence Intensity of Test Compound Solution)−(Florescence Intensity of Blank)}/{(Florescence Intensity of Control)−(Florescence Intensity of Blank)}] (Test Results)

Take `CC(C)NC(=O)N(CCN(C)C)Cc1ccc(C(=O)Nc2cscc2N)nc1` [Compound No. 1-43, N-(4-Aminothiophen-3-yl)-5-[1-(2-dimethylaminoethyl)-3-isopropylureidomethyl]pyridine-2-carboxylic acid amide]: in assay [1], the CSI is given as 0.522. Further, the “Intraocular Pressure Reduction Rate (%)” value in assay [2] is on record as 7%. Also, in assay [3], the “Enzyme Inhibitory Rate (%)” value came to 100%.

As to `CCCNC(=O)N(CCCCN1CCOCC1)Cc1ccc(C(=O)Nc2cscc2N)nc1` [Compound No. 1-82, N-(4-Aminothiophen-3-yl)-5-[1-[4-(morpholin-4-yl)butyl]-3-propylureidomethyl]pyridine-2-carboxylic acid amide], in assay [1], the CSI is 0.507. The “Intraocular Pressure Reduction Rate (%)” value in assay [2] is given as 25%. Besides, the “Enzyme Inhibitory Rate (%)” value in assay [3] was 96%.
